Here are results for two molecules from patent US20100284924A1, “NANO-DEVICES HAVING IMPELLERS FOR CAPTURE AND RELEASE OF MOLECULES” (The Regents of the University of California, priority 2009, published 2010).

For assay [1], the system named is PANC-1 cancer cells. Put plainly: Cell death assay, propidium iodide/Hoechst 33342 double-staining, confocal imaging. Format: cell-based, human. Particulars: CPT suspended in PBS, not in particles. How it is done: FIGS. 9A-9C show light-triggered delivery of the anticancer drug camptothecin (CPT) inside PANC-1 cancer cells to induce apoptosis according to an embodiment of the current invention, CPT molecules were loaded into the pores of the LAMS and a homogeneous suspension of the CPT-loaded particles (10 μg/ml) was added to the cells which were incubated in Lab-Tek chamber slides for 3 hrs in dark. The cells were then irradiated under ˜0.1 W/cm^2, 413 nm light for 1 to 10 min, again incubated in the dark for 48 hours, and double-stained with propidium iodide/Hoechst 33342 solution (1:1). FIG. 9A. CPT-loaded particles were incubated with cancer cells and illuminated for 1 (a), 3 (b), 5 (c) or 10 min (d, e, f). FIG. 9B. […]
Cell Death Assay: Cell death was also examined by using the propidium iodide and Hoechst 33342 double-staining method. The cells incubated on a Lab-Tek chamber slide system were stained with propidium iodide/Hoechst 33342 (1:1) for 5 min after treatment with CPT-loaded LAMS or free LAMS followed by light irradiation, and then examined with fluorescence microscopy. […] The absorbance of each well was measured at 450 nm with a plate reader. Since the absorbance is proportional to the number of viable cells in the medium, the viable cell number was determined by using a previously prepared calibration curve (Dojindo Co.).

Assay [2] relates to PANC-1 cancer cells. Put plainly: Photocontrolled staining of cell nuclei by released PI, confocal microscopy. The format is cell-based, human. The note with it: free PI not loaded into the particles. How it is done:
FIGS. 8A-8C show confocal microscope images of the photocontrolled staining of the nuclei of PANC-1 cancer cells. Plasma membrane impermeable propidium iodide (PI) molecules were loaded in the pores of LAMS and the dye loaded particles were incubated with the cells for 3 hours in the dark. The cells were then exposed to the activation beam for 1 to 10 min. After further incubation in the dark for 10 min, the cells were examined with confocal microscopy ([…]) FIG. 8A. Cells incubated with the PI-loaded LAMS and illuminated for 0 (a), 1 (b), 3 (c), or 5 min (f) under a constant ˜0.2 W/cm^2, 413 nm light or with different light intensities (˜0.01 (d) or ˜0.1 W/cm^2 (e) for 5 min at a 413 nm light). FIG. 8B. PANC-1 cells incubated with the PI-loaded LAMS (g), free PI molecules (h), or empty LAMS (i) were kept in the dark and exposed to a 413 nm light. FIG. 8C. Cells incubated with the PI-loaded LAMS were illuminated with ˜0.2 W/cm^2, 676 nm light for 0 (j), 1 (k) or 5 min (l). Scale bar: 30 μm.
Based on the successful operation of the impeller in water, in vitro studies were carried out on two human cancer cell lines (PANC-1 and SW480). To detect the photo-responsive behavior of the impellers inside of cells, a membrane-impermeable dye, PI was chosen as the fluorescent probe molecule and loaded into the particles following the same procedure as that used for the Rhodamine B loading. […]

For `CC[C@@]1(O)C(=O)OCc2c1cc1n(c2=O)Cc2cc3ccccc3nc2-1` [CPT, camptothecin], the cell killing result in the assay on PANC-1 cancer cells [1] was “did not kill the cells”.
Regarding `CC[N+](C)(CC)CCC[n+]1c(-c2ccccc2)c2cc(N)ccc2c2ccc(N)cc21.[I-].[I-]` [PI, propidium iodide], the “cell staining (cell entry)” value in the assay on PANC-1 cancer cells [2] was “cell staining did not occur”.
